These are literature values, as cited in patent US6022703A, “Expression of DNA sequences derived from nocardioform microorganisms” (Genzyme Corporation, priority 1993, dated 2000).

The data set has as its system Nocardioform cholesterol oxidase. The settings on record: at 25°.

On to `CC(C)CCC[C@@H](C)[C@H]1CC[C@H]2[C@@H]3CC=C4C[C@@H](O)CC[C@]4(C)[C@H]3CC[C@]12C` [cholesterol], for which the Michaelis-Menten constant (Km) was 14 µM.
